The values that follow come from article PMC10714334, “Developing multispecies quorum-sensing modulators based on the Streptococcus mitis competence-stimulating peptide” (The Journal of Biological Chemistry, 2023).

Non-standard residues stand in square brackets, D forms with d. Residues, ends and D or L forms follow the SMILES beside them. No end group written: not given here.

Assay [1] has as its target S. mitis ComD-2 receptor. Nature of the assay: luminescence reporter activation assay (comX expression). The class given is cell-based, Streptococcus mitis. The following applies: for EC50: S. mitis luciferase reporter strain ATCC49456 PcomX luc::Spc, 30 min at 37 °C, triplicate on three separate days. As for the experimental part: The ability of synthetic S. mitis-CSP-2 analogs to activate the expression of S. mitis comX was determined using the constructed S. mitis luciferase reporter strain. First, bacteria from the S. mitis luciferase reporter strain freezer stock were streaked onto a Todd-Hewitt broth supplemented with 0.5% yeast extract (THY) agar plate containing 5% horse serum and spectinomycin at a final concentration of 200 μg/ml. The plate was incubated overnight in a CO2 incubator (37 °C with 5% CO2). Fresh colonies were transferred to Tryptic soy broth supplemented with spectinomycin at a final concentration of 200 μg/ml, and the culture was incubated at 37 °C in a 5% CO2-supplemented atmosphere and grown overnight (16 h) until the culture reached an absorbance at 600 nm (optical density at 600 nm [A600]) of 0.45. Overnight cultures of the S. mitis reporter strain at A600 0.45 were diluted 1:10 in Tryptic soy broth and the liquid cultures were incubated in a CO2 incubator for 30 to 45 min, until the bacteria reached early exponential stage (A600 ∼ 0.2) as determined by using a plate reader. During incubation, clear-bottom white 96-well microtiter plates were prepared for the activation assays. An initial activation screening was performed at a high peptide concentration (10,000 nM) for all the S. mitis-CSP-2 analogs (Figs. S1–S7). For each experimental sample, a total of 2 μl of a 1 mM CSP stock solution in dimethyl sulfoxide (DMSO) was added in triplicate to the clear-bottom white 96-well microtiter plate. A total of 2 μl of DMSO was added in triplicate and served as the negative control, and 2 μl of a 1 mM stock of native S. mitis-CSP-2 was added in triplicate as a positive control. In the dark, 2 μl of a 15 mg/ml D-luciferin stock in distilled water was added to each well. Following the addition of synthetic CSPs and D-luciferin, 196 μl of the diluted bacterial culture was added to each well, and the plate was incubated for 30 min at 37 °C. Following incubation, the A600 and luminescence of each experimental well were measured. Results were reported as percent activation, which is the ratio between the luminescence (presented as relative luminescence units, RLU/A600) of the analog and that of the positive control. […] EC50 values, the concentration of the peptide to achieve a half maximal response, for each activator were calculated using GraphPad Prism (https://www.graphpad.com/). Experiments were performed in triplicate on three separate days.
Primary reporter gene assay data
Agonism assays were performed at a 10 µM concentration of synthetic CSP. S. mitis-CSP-2 was used as the positive control (100%) while DMSO as the negative control (0%). For all figures, comX expression is presented as relative luminescence units (RLU) divided by measured cultural optical density (OD). Percent (%) ComD activation was measured by normalizing the RLU/OD value obtained for each peptide to that of the native S. mitis-CSP-2. The results are averages from three replicates and representative of three independent experiments. Error bars represent the standard error of the mean of nine values.
Figure S-1. Primary agonism screening assay data for the S. mitis-CSP-2 alanine scan analogs. Peptides […]
(1 picture or pasted object on this page, not shown here)
(Reporter assays use an easily measured gene product as a stand-in for the process of interest.)

The target in assay [2] is S. mitis ComD-2 receptor. Nature of the assay: luminescence reporter competitive inhibition assay (comX expression). The following applies: same reporter strain; competition against 1 μM native S. mitis-CSP-2; 30 min at 37 °C; triplicate on three separate days. The class given is cell-based, Streptococcus mitis. As for the experimental part: As a positive control, 2 μl of S. mitis-CSP-2 and 2 μl of DMSO were added to the same well in triplicate. As a negative control, 4 μl of DMSO was added in triplicate. Then, 2 μl of 15 mg/ml D-luciferin in distilled water was added to each experimental or control well, after which 194 μl of bacteria was added, and the plate was incubated for 30 min at 37 °C. Following incubation, the A600 and luminescence of each experimental well were measured. Results were reported as percent activation, which is the ratio between the luminescence (presented as relative luminescence units, RLU/A600) of the analog and that of the positive control. […] GraphPad Prism was used to calculate the IC50 values, which are the concentration of inhibitor where the response (or binding) is reduced by half. Experiments were performed in triplicate on three separate days.
Antagonism assays were performed at 10 μM concentration of peptides against 1 µM concentration of S. mitis-CSP-2. S. mitis-CSP-2 (1 µM) was used as the positive control (100%) while DMSO as the negative control (0%). For all figures, comX expression is presented as relative luminescence units (RLU) divided by measured cultural optical density (OD). Percent (%) ComD activation was measured by normalizing the RLU/OD value obtained for each peptide to that of the native S. mitis-CSP-2. The results are averages from three replicates and representative of three independent experiments. Error bars represent the standard error of the mean of nine values.
Figure S-8. Primary antagonism screening assay data for t he S. mitis-CSP-2 alanine scan and D-amino acid […]
determine its IC50 value.
Figure S-9. Primary antagonism screening assay data for t he S. mitis-CSP-2 truncated analogs . S. mitis- […]

Assay [3] deals with pneumococcus ComD1 receptor. The following applies: read-out: EC50, S. pneumoniae ComD1; cited from earlier work. The source says: (§1) Table 5 EC50 or IC50 values of select Streptococcus mitis-CSP-2–based pneumococcal QS modulators against the pneumococcus ComD1 and ComD2 and the S. mitis ComD-2 receptors ^a | column: Streptococcus pneumoniae ^b / ComD1 / EC50 or IC50∗ (nM) || In our previous work, we utilized the S. mitis-CSP-2 scaffold to develop analogs capable of modulating the two pneumococcal ComD receptors at low nanomolar concentrations ([2]). We wanted to evaluate whether the optimization of the S. mitis-CSP-2 scaffold to the pneumococcus ComD receptors affected the ability of the modified analogs to interact with the S. mitis ComD-2 receptor.

Assay [4] addresses pneumococcus ComD2 receptor. The following applies: read-out: EC50, S. pneumoniae ComD2; cited from earlier work.
Text: as §1, with “/ ComD2” for “/ ComD1”

Consider “EIRQTHNIFFNFF [S. mitis-CSP-2-des-K14R15R16, truncated analog of S. mitis-CSP-2]”, for which the “ComD-2 activation: EC50 not determined due to the analog's low induction in primary agonism screening assay” value in assay [1] (initial screening at 10,000 nM peptide) is reported as “complete loss of activity”. By IC50 is commonly meant the concentration that inhibits the measured activity by half. The low end stands for greater potency, the high end for weaker potency. With “AIRQTHNIFFNAFKRR [S. mitis-CSP-2-E1AF12A]”, the IC50 in assay [2] was > 1 µM.

Usually EC50 stands for the concentration that produces a half-maximal response. Regarding `CC[C@H](C)[C@H](NC(=O)[C@H](CC(N)=O)NC(=O)[C@@H](Cc1c[nH]cn1)NC(=O)[C@@H](NC(=O)[C@H](CCC(N)=O)NC(=O)[C@H](CCCNC(=N)N)NC(=O)[C@@H](NC(=O)[C@@H](N)CCC(=O)O)[C@@H](C)CC)[C@@H](C)O)C(=O)N[C@@H](Cc1ccccc1)C(=O)N[C@@H](Cc1ccccc1)C(=O)N[C@@H](CC(N)=O)C(=O)N[C@@H](Cc1ccccc1)C(=O)N[C@@H](Cc1ccccc1)C(=O)N[C@@H](CCCCN)C(=O)N[C@@H](CCCNC(=N)N)C(=O)N[C@@H](CCCNC(=N)N)C(=O)O` [S. mitis-CSP-2-h6] (H-EIRQT[dH]NIFFNFFKRR-OH; N-terminus and C-terminus assumed), the EC50 in assay [1] is > 1 µM. As for EIRQTHNIAFNFFKRR [S. mitis-CSP-2-F9A], the EC50 in assay [1] is > 1 µM. For the molecule `CC[C@H](C)[C@H](NC(=O)[C@H](CC(N)=O)NC(=O)[C@H](Cc1c[nH]cn1)NC(=O)[C@H](NC(=O)[C@H](CCC(N)=O)NC(=O)[C@H](CCCNC(=N)N)NC(=O)[C@@H](NC(=O)[C@@H](N)CCC(=O)O)[C@@H](C)CC)[C@H](C)O)C(=O)N[C@@H](Cc1ccccc1)C(=O)N[C@@H](Cc1ccccc1)C(=O)N[C@@H](CC(N)=O)C(=O)N[C@@H](Cc1ccccc1)C(=O)N[C@@H](Cc1ccccc1)C(=O)N[C@@H](CCCCN)C(=O)N[C@@H](CCCNC(=N)N)C(=O)N[C@@H](CCCNC(=N)N)C(=O)O` [S. mitis-CSP-2-t5] (H-EIRQ[dT]HNIFFNFFKRR-OH; N-terminus and C-terminus assumed), the concentration giving a half-maximal response (EC50) in assay [1] was > 1 µM. Same read-out and setting: the figure for `CC[C@H](C)[C@H](NC(=O)[C@H](CC(N)=O)NC(=O)[C@H](Cc1c[nH]cn1)NC(=O)[C@@H](NC(=O)[C@@H](CCC(N)=O)NC(=O)[C@H](CCCNC(=N)N)NC(=O)[C@@H](NC(=O)[C@@H](N)CCC(=O)O)[C@@H](C)CC)[C@@H](C)O)C(=O)N[C@@H](Cc1ccccc1)C(=O)N[C@@H](Cc1ccccc1)C(=O)N[C@@H](CC(N)=O)C(=O)N[C@@H](Cc1ccccc1)C(=O)N[C@@H](Cc1ccccc1)C(=O)N[C@@H](CCCCN)C(=O)N[C@@H](CCCNC(=N)N)C(=O)N[C@@H](CCCNC(=N)N)C(=O)O` [S. mitis-CSP-2-q4] (H-EIR[dQ]THNIFFNFFKRR-OH; N-terminus and C-terminus assumed) is > 1 µM. Regarding `CC[C@H](C)[C@H](NC(=O)[C@H](C)N)C(=O)N[C@@H](CCCNC(=N)N)C(=O)N[C@@H](CCC(N)=O)C(=O)N[C@H](C(=O)N[C@@H](Cc1c[nH]cn1)C(=O)N[C@@H](CC(N)=O)C(=O)N[C@H](C(=O)N[C@@H](Cc1ccccc1)C(=O)N[C@H](Cc1ccccc1)C(=O)N[C@H](CC(N)=O)C(=O)N[C@@H](Cc1ccccc1)C(=O)N[C@@H](Cc1ccccc1)C(=O)N[C@@H](CCCCN)C(=O)N[C@@H](CCCNC(=N)N)C(=O)N[C@@H](CCCNC(=N)N)C(=O)O)[C@@H](C)CC)[C@@H](C)O` [S. mitis-CSP-2-E1Af10n11] (H-AIRQTHNIF[dF][dN]FFKRR-OH; N-terminus and C-terminus assumed), in assay [2], the IC50 is > 1 µM. “EMRQTHIFFFNFFKRR [S. mitis-CSP-2-I2MN7II8F]”: the EC50 was 0.0616 µM in assay [3], 0.00267 µM in assay [4] and > 1 µM in assay [1].

As for “EMRQTHNFFFFFFKRR [S. mitis-CSP-2-I2MI8FN11F, S. mitis-CSP-2-based pneumococcal QS modulator from previous study]”, the results for the EC50 in assay [3] and in assay [4] were 0.00695 µM and 0.0262 µM, respectively.

With EIRQTANIFFNFFKRR [S. mitis-CSP-2-H6A], the EC50 in assay [1] was > 1 µM.

Turning to “EMRQTHNFFFNFFKRR [S. mitis-CSP-2-I2MI8F, S. mitis-CSP-2-based pneumococcal QS modulator from previous study]”, the EC50 in assay [3] was 0.151 µM; in assay [4], 0.0832 µM.

Consider “EMRLTHNFFFNFFKRR [S. mitis-CSP-2-I2MQ4LI8F, S. mitis-CSP-2-based pneumococcal QS modulator from previous study]”, for which the EC50 in assay [3] was 0.042 µM; in assay [4], 0.03 µM.

Regarding “AIRQTHNIFFNFAKRR [S. mitis-CSP-2-E1AF13A]”, the IC50 in assay [2] was > 1 µM. Consider “EMRLTHNIFFFFFKRR [S. mitis-CSP-2-I2MQ4LN11F]”, for which the results for the EC50 in assay [3], in assay [4] and in assay [1] were 0.0148 µM, 0.188 µM and > 1 µM, respectively. In the case of “EMRLTHFIFFNFFKRR [S. mitis-CSP-2-I2MQ4LN7F]”, the 50% effective concentration (EC50) in assay [3] was 0.137 µM; in assay [4] it was 0.0756 µM; in assay [1], > 1 µM. Regarding `CC[C@H](C)[C@H](NC(=O)[C@@H](N)CCC(=O)O)C(=O)N[C@@H](CCCNC(=N)N)C(=O)N[C@@H](CCC(N)=O)C(=O)N[C@H](C(=O)N[C@@H](Cc1c[nH]cn1)C(=O)N[C@H](CC(N)=O)C(=O)N[C@H](C(=O)N[C@@H](Cc1ccccc1)C(=O)N[C@@H](Cc1ccccc1)C(=O)N[C@@H](CC(N)=O)C(=O)N[C@@H](Cc1ccccc1)C(=O)N[C@@H](Cc1ccccc1)C(=O)N[C@@H](CCCCN)C(=O)N[C@@H](CCCNC(=N)N)C(=O)N[C@@H](CCCNC(=N)N)C(=O)O)[C@@H](C)CC)[C@@H](C)O` [S. mitis-CSP-2-n7] (H-EIRQTH[dN]IFFNFFKRR-OH; N-terminus and C-terminus assumed), the EC50 in assay [1] is > 1 µM. With “EMRQTHFFFFNFFKRR [S. mitis-CSP-2-I2MN7FI8F]”, the EC50 in assay [3] is 0.0636 µM; in assay [4], 0.0135 µM; in assay [1] it was > 1 µM. For the molecule “EMRQTHFIFFNLFKRR [S. mitis-CSP-2-I2MN7FF12L]”, the EC50 is 0.0728 µM in assay [3], 0.112 µM in assay [4] and > 1 µM in assay [1].
